PMC3758310, “The Human Cathelicidin LL-37 Has Antiviral Activity against Respiratory Syncytial Virus” (PLoS ONE, 2013)

Assays:
RSV-infected HEp-2 cells = assay: MTT assay of viable metabolically active RSV-infected HEp-2 cells (cytopathic effects); type: cell-based; details: for viable HEp-2 cells surviving RSV infection at 5 days, pre-treatment condition: simultaneous RSV MOI = 0.005 and LL-37 0–50 µg/ml, scrambled LL-37 50 µg/ml or ribavirin 200 µM for 2 hours, 5 days without treatment; for protection of RSV-infected HEp-2 cells from cell death at 5 days, continuous treatment condition: treatment re-added after wash and present for 5 days, ribavirin 200 µM, LL-37 p<0.01, ribavirin p<0.001 vs untreated infected
Description: HEp-2 cells were treated with LL-37, a scrambled control LL-37 at 50 µg/ml or ribavirin (200 µM; Sigma Aldrich), in the presence or absence of simultaneous infection with RSV (MOI = 0.005). Cells were incubated for 2 hours at 37°C, washed and placed in fresh media. In some wells LL-37 or ribavirin was added again at this point (for “continuous treatment”). Cells were cultured at 37°C for 24 hours or 5 days, after which the number of viable metabolically active cells was assessed using an MTT assay (Sigma Aldrich) according to manufacturer's instructions (7.5 mg/ml, 37°C, 4 hours). Resulting formazan was dissolved in dimethylsulfoxide (Sigma Aldrich) and optical density was measured at 450 nm. Alternatively, cells simultaneously treated with or without LL-37 in presence or absence of RSV infection were allowed to dry for 10 minutes before they were fixed and permeabilised using ice-cold acetone/methanol (1∶1) for 10 minutes at 4°C. After a wash with PBS, cells were subjected to TUNEL assay using an In situ cell death kit (Roche Applied Science, UK) according to manufacturer's instructions. Cells were washed three times with PBS and 1 µg/ml DAPI was included in the second wash (3 minutes staining). Cells were examined by fluorescent microscopy, four representative images per well were captured using an EVOS fl imaging system (PEQLAB Ltd) and TUNEL positive and negative cells were quantified using ImageJ (http://rsbweb.nih.gov/ij/index.html).

HEp-2 cells [1] = assay: TUNEL assay of cell death in HEp-2 cells; type: cell-based, human; details: in the presence or absence of RSV or LL-37, 24 hours after infection; data not shown
Description: (§1) HEp-2 cells were treated with LL-37, a scrambled control LL-37 at 50 µg/ml or ribavirin (200 µM; Sigma Aldrich), in the presence or absence of simultaneous infection with RSV (MOI = 0.005). Cells were incubated for 2 hours at 37°C, washed and placed in fresh media. In some wells LL-37 or ribavirin was added again at this point (for “continuous treatment”). Cells were cultured at 37°C for 24 hours or 5 days, after which the number of viable metabolically active cells was assessed using an MTT assay (Sigma Aldrich) according to manufacturer's instructions (7.5 mg/ml, 37°C, 4 hours). Resulting formazan was dissolved in dimethylsulfoxide (Sigma Aldrich) and optical density was measured at 450 nm. Alternatively, cells simultaneously treated with or without LL-37 in presence or absence of RSV infection were allowed to dry for 10 minutes before they were fixed and permeabilised using ice-cold acetone/methanol (1∶1) for 10 minutes at 4°C. After a wash with PBS, cells were subjected to TUNEL assay using an In situ cell death kit (Roche Applied Science, UK) according to manufacturer's instructions. […] Cells were examined by fluorescent microscopy, four representative images per well were captured using an EVOS fl imaging system (PEQLAB Ltd) and TUNEL positive and negative cells were quantified using ImageJ (http://rsbweb.nih.gov/ij/index.html).

RSV viral particles = assay: Direct viral inactivation assay; type: cell-based, RSV strain A2
Description: A modified viral inactivation assay was performed. 1 ml RSV (PFU = 2×10^3, equivalent to MOI = 0.05) was mixed with 25 µg/ml LL-37, followed by immediate 10-fold dilution in serum-free medium to reach sub-therapeutic concentrations of LL-37 (2.5 µg/ml) and RSV MOI = 0.005. 25 µg/ml scrambled LL-37 or PBS were used as negative controls. HEp-2 monolayers were infected with this virus/peptide mixture for 2 hours then washed, before cells were cultured in serum-free medium for 24 hours. Fixed monolayers were subjected to immunoplaque assay.

RSV [2] = assay: Immunoplaque assay of RSV-infected HEp-2 cells at 24 hours; type: cell-based, RSV strain A2; details: for reduction in number of infected cells: then 2 hours infection
Description: RSV strain A2 (VR-1540) was purchased from ATCC. RSV was propagated in HEp-2 cells by infecting 5×10^6 cells that were allowed to grow on confluent overnight in serum-free VP-SFM media (Gibco) for 2 hours with 0.1 plaque forming units (PFU) followed by removal of inoculum. Cells were then incubated for 24 hours in 10% FCS Gold (PAA Laboratories) supplemented VP-SFM. Cells were then incubated for a further 5 days in 2% FCS Gold supplemented VP-SFM, cells were harvested and supernatant was snap-frozen and stored at −80°C.
An immunoplaque assay (based on) was used to quantify RSV infected cells. Optimisation of the infection protocol was conducted using serial dilutions of RSV to assess the PFU of propagated virus stocks and establish an optimal MOI of 0.005 that allowed reliable counting of individual infected cells (approximately 100–250 per well) in a control infected culture at 24 hours. Peptide treatments were therefore primarily evaluated at RSV MOI = 0.005, however higher MOIs (up to 1) were also tested and similar effects of peptides were observed (data not shown). For experimental assessment of the antiviral effects of peptides, cells were seeded at 2×10^4 per well in 96-well plates and cultured overnight, then washed and infected, in fresh serum-free medium. After 2 hours, inoculum was removed and cells were cultured in fresh medium for 24, 48 or 72 hours before analysis. Peptides were added before, after or concomitantly with RSV infection as described for individual experiments. Monolayers were fixed in absolute methanol/2% hydrogen peroxide solution for 30 minutes and washed twice with PBS. Cells were exposed to monoclonal biotinylated anti-RSV antibody in 5% BSA/PBS for 1 hour (1∶200, AbD Serotec, Kidlington, UK), washed twice with PBS and were incubated with extravidin peroxidase in 5% BSA/PBS for 30 minutes (1∶500, Sigma Aldrich). Cells were stained using 3-amino-ethylcarbazole substrate (Invitrogen/Life technologies) according to manufacturer's instructions for 15 minutes, washed 3 times with PBS and infected RSV positive foci were quantified by light microscopy, counting 3–4 wells per condition. For later timepoint analysis (48 and 72 hours post infection with RSV MOI = 0.0005), fixed and stained monolayers were examined by light microscopy and images were captured using an EVOS fl imaging system (PEQLAB Ltd, UK). Quantification was performed using the ImageJ plugin Treshold_colour to measure the percentage of cells positive for RSV infection. 3 wells were assessed per condition, using 4 random fields of view captured per well. To assess the production of infectious viral particles, supernatants were serially diluted and transferred to fresh HEp-2 monolayers, incubated for 2 hours at 37°C, washed, incubated for a further 24 hours and then assessed by immunoplaque assay.

RSV [3] = assay: Immunoplaque assay of RSV-infected Vero cells (type I interferon deficient) at 24 hours; type: cell-based, RSV strain A2; details: 25 µg/ml simultaneous with RSV MOI = 0.005 for 2 hours, p<0.001, n = 3-5
Description: (§2) HEp-2 cells (ATCC CCL-23), Vero cells (ATCC CCL-81) and 16HBE14o^- transformed human bronchial epithelial cells (a kind gift from Dieter Gruenert, University of California) were cultured in DMEM/F12 (Gibco/Life Technologies Ltd, Paisley, UK) or RPMI (Gibco) respectively, supplemented with 2 mM L-glutamine (PAA Laboratories, Yeovil, UK) and 10% FCS (Biosera, East Sussex, UK), at 37°C and 5% CO2. 16HBE14o^- cells were cultured on wells previously coated with a basement layer of collagen IV (5 µg/ml), fibronectin (10 µg/ml) and bovine serum albumin (100 µg/ml) (all Sigma Aldrich, Dorset, UK).
(§3) An immunoplaque assay (based on) was used to quantify RSV infected cells. […] Peptide treatments were therefore primarily evaluated at RSV MOI = 0.005, however higher MOIs (up to 1) were also tested and similar effects of peptides were observed (data not shown). […] Cells were stained using 3-amino-ethylcarbazole substrate (Invitrogen/Life technologies) according to manufacturer's instructions for 15 minutes, washed 3 times with PBS and infected RSV positive foci were quantified by light microscopy, counting 3–4 wells per condition. […] Quantification was performed using the ImageJ plugin Treshold_colour to measure the percentage of cells positive for RSV infection. 3 wells were assessed per condition, using 4 random fields of view captured per well. […]

RSV [4] = assay: Immunoplaque assay of RSV-infected 16HBE14o- cells at 24 hours; type: cell-based, RSV strain A2; details: RSV MOI = 0.005, simultaneous peptide and virus 2 hours, washed, n = 3-5
Description: as §2, §3

HEp-2 cells [5] = assay: MTT assay of uninfected HEp-2 cells; type: cell-based, human; details: LL-37 ≤50 µg/ml, 2 hours, washed, n = 3-4
Description: as §1

RSV [6] = assay: Production of new infectious viral particles (supernatant transfer to fresh HEp-2 cells, immunoplaque assay); type: cell-based, RSV strain A2
Description: (§4) An immunoplaque assay (based on) was used to quantify RSV infected cells. Optimisation of the infection protocol was conducted using serial dilutions of RSV to assess the PFU of propagated virus stocks and establish an optimal MOI of 0.005 that allowed reliable counting of individual infected cells (approximately 100–250 per well) in a control infected culture at 24 hours. Peptide treatments were therefore primarily evaluated at RSV MOI = 0.005, however higher MOIs (up to 1) were also tested and similar effects of peptides were observed (data not shown). […] Cells were stained using 3-amino-ethylcarbazole substrate (Invitrogen/Life technologies) according to manufacturer's instructions for 15 minutes, washed 3 times with PBS and infected RSV positive foci were quantified by light microscopy, counting 3–4 wells per condition. […] Quantification was performed using the ImageJ plugin Treshold_colour to measure the percentage of cells positive for RSV infection. 3 wells were assessed per condition, using 4 random fields of view captured per well. To assess the production of infectious viral particles, supernatants were serially diluted and transferred to fresh HEp-2 monolayers, incubated for 2 hours at 37°C, washed, incubated for a further 24 hours and then assessed by immunoplaque assay.

RSV [7] = assay: Spread of RSV infection in HEp-2 cultures over 48 and 72 hours (immunoplaque, image analysis); type: cell-based, RSV strain A2; details: washed, 48 or 72 hours, n = 3
Description: as §4

## NC(=O)c1ncn([C@@H]2O[C@H](CO)[C@@H](O)[C@H]2O)n1 [ribavirin, reference compound]
RSV-infected HEp-2 cells; washed, n = 3-4
  viable HEp-2 cells surviving RSV infection at 5 days, pre-treatment condition: Neither scrambled LL-37 nor the antiviral ribavirin had any direct effect
RSV-infected HEp-2 cells
  protection of RSV-infected HEp-2 cells from cell death at 5 days, continuous treatment condition: significant protection of epithelial cells from cell death

## LL-37: active form of the sole human cathelicidin hCAP-18; cationic host defence peptide
RSV-infected HEp-2 cells; LL-37 ≤50 µg/ml, RSV MOI = 0.005, 2 hours, washed, 24 hours, OD 450 nm, n = 3-4
  number of metabolically active RSV-infected HEp-2 cells at 24 hours: did not have any substantial effect
RSV-infected HEp-2 cells; washed, n = 3-4
  viable HEp-2 cells surviving RSV infection at 5 days, pre-treatment condition: significantly more viable HEp-2 cells surviving RSV infection in a dose-dependent manner
RSV-infected HEp-2 cells
  protection of RSV-infected HEp-2 cells from cell death at 5 days, continuous treatment condition: significant protection of epithelial cells from cell death
HEp-2 cells [1]
  TUNEL positive HEp-2 cells: 0.5–1.5%
RSV viral particles; RSV MOI = 0.005 pre-mixed with 2.5 µg/ml LL-37 before immediate use, HEp-2, 24 hours
  antiviral effect of virus and cell exposure to 2.5 µg/ml LL-37: no significant effects
RSV viral particles; RSV MOI = 0.05 pre-mixed with 25 µg/ml, immediate 1:10 dilution, HEp-2 infected 2 hours, 24 hours, immunoplaque, n≥3
  antiviral effect of virus exposure to 25 µg/ml peptide followed by 1 in 10 dilution (cell exposure 2.5 µg/ml): significant antiviral effects
RSV [2]; 25 µg/ml LL-37, in vitro
  decrease in the number of initially infected cells: approximately 1 log
RSV [2]; 25 µg/ml simultaneous with RSV MOI = 0.005 for 2 hours, 24 hours, p<0.001, n = 3-5
  antiviral activity against RSV in HEp-2 cells: identical significant antiviral activity
RSV [2]; HEp-2, RSV MOI = 0.005, simultaneous peptide and virus 2 hours, washed, 24 hours at 37°C, p<0.05 vs virus alone, mean of n = 3-5
  LL-37 concentration giving significant, concentration-dependent reduction in infectivity (number of RSV-infected cells): ≥ 10 µg/mL
RSV [2]; HEp-2, RSV MOI = 0.005 for 2 hours, washed, then 1 hour LL-37, infected cells at 24 hours
  antiviral effect, LL-37 treatment delayed until 2 hours after viral infection (Virus first): loss of the antiviral effect
RSV [2]; HEp-2, RSV preincubated with 25 µg/ml LL-37 for 1 hour at 4°C, 24 hours, p<0.001
  reduction in number of infected cells: approximately 1 log
RSV [2]; HEp-2, RSV preincubated with 25 µg/ml LL-37 for 1 hour at 37°C, 24 hours, p<0.01
  reduction in number of infected cells: approximately 1 log
RSV [2]; HEp-2, simultaneous RSV MOI = 0.005 and peptide at 1, 10 and 25 µg/ml for 2 hours, washed, 24 hours, n = 3
  antiviral activity of full length and 22-mer partial peptides (number of infected cells): significant antiviral activity
RSV [2]; HEp-2 pre-treated 25 µg/ml LL-37 1 hour, washed, RSV MOI = 0.005 at 1 or 3 hours, p<0.001, n≥3
  protection against RSV infection when infection delayed up to 3 hours after LL-37 treatment and cell washing: significant protection against RSV infection
RSV [2]; HEp-2 pre-treated 25 µg/ml LL-37 1 hour, washed, RSV MOI = 0.005 at 24 hours
  protection against RSV infection when infection delayed 24 hours after LL-37 treatment and cell washing: no protection evident
RSV [2]; HEp-2 treated with LL-37 1 hour, washed, 2 hour RSV infection MOI = 0.005, 24 hours, p<0.001
  RSV infection after pre-incubation of cells with LL-37 and washing (LL-37 first): significantly less RSV infection
RSV [3]
  antiviral activity against RSV in Vero cells: identical significant antiviral activity
RSV [4]
  antiviral effect (number of RSV-infected cells relative to untreated infected cells): The same effect was observed
HEp-2 cells [5]
  number of metabolically active uninfected HEp-2 cells after 5 days: did not affect the number of metabolically active HEp-2 cells
RSV [6]; 25 µg/ml LL-37 replaced after wash, 3 days, p<0.05
  infectivity of supernatant at day 3 with LL-37 remaining in the media (continuous): reducing infectivity up to day 3
RSV [6]; HEp-2, RSV with 25 µg/ml peptide 2 hours, washed, fresh media with or without peptide, supernatant infectivity on fresh HEp-2, p<0.001, n = 3
  production of new infectious viral particles: very substantially, fewer new infectious viral particles
RSV [7]; HEp-2, RSV MOI = 0.0005 2 hours, 25 µg/ml LL-37 1 hour
  spread of infection beyond initially infected cells, LL-37 added after RSV infection (virus first): spread of infection beyond the cells initially infected was minimised
RSV [7]; HEp-2, RSV MOI = 0.0005, 25 µg/ml peptide 2 hours
  spread of infection beyond initially infected cells, peptide added simultaneously with RSV: spread of infection beyond the cells initially infected was minimised
